Experimental data: ChEMBL document CHEMBL3868615, “Decahydrobenzoquinolin-5-one sigma receptor ligands: Divergent development of both sigma 1 and sigma 2 receptor selective examples” (Bioorg Med Chem Lett, 2016)

Key:
[1] = biological target: Sodium-dependent serotonin transporter (Homo sapiens, UniProt P31645); assay: Displacement of [3H]Citalopram from human SERT expressed in HEK cells measured after 90 mins by microbeta scintillation counting method; format: cell-based, HEK293
[2] = biological target: 5-hydroxytryptamine receptor 2A (Homo sapiens, UniProt P28223); assay: Displacement of [3H]Ketanserin from 5-HT2A receptor (unknown origin) measured after 90 mins by microbeta scintillation counting method
[3] = biological target: Muscarinic acetylcholine receptor M4 (Homo sapiens, UniProt P08173); assay: Binding affinity to human M4 receptor expressed in CHO cells measured after 90 mins by radioligand binding assay; format: cell-based
[4] = biological target: Alpha-2A adrenergic receptor (Homo sapiens, UniProt P08913); assay: Displacement of [3H]Rauwolscine from human Alpha2A receptor expressed in MDCK cells measured after 90 mins by microbeta scintillation counting method; format: cell-based
Sequence of Alpha-2A adrenergic receptor (P08913 whole entry): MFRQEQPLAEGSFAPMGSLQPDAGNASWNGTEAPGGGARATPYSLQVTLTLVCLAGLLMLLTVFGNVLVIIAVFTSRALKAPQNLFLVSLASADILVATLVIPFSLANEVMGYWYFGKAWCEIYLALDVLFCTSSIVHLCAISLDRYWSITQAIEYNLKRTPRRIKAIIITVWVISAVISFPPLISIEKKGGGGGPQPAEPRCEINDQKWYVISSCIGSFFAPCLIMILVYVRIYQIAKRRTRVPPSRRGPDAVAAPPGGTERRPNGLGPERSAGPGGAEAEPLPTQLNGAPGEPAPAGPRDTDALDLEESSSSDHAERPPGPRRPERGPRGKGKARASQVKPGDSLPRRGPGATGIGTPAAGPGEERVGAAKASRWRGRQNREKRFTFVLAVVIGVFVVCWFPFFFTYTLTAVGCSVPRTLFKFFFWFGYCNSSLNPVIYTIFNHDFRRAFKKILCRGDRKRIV

Histamine H1 receptor = Histamine H1 receptor (Homo sapiens, UniProt P35367); assay: Displacement of [3H]Pyrilamine from human H1 receptor expressed in HEK cells measured after 90 mins by microbeta scintillation counting method; format: cell-based, HEK293
D(2) dopamine receptor = D(2) dopamine receptor (Homo sapiens, UniProt P14416); assay: Displacement of [3H]N-methylspiperone from human D2 receptor expressed in fibroblast cells measured after 90 mins by microbeta scintillation counting method; format: cell-based
[5] = biological target: Muscarinic acetylcholine receptor M1 (Homo sapiens, UniProt P11229); assay: Binding affinity to human M1 receptor expressed in CHO cells measured after 90 mins by radioligand binding assay; format: cell-based
[6] = biological target: Alpha-2C adrenergic receptor (Homo sapiens, UniProt P18825); assay: Displacement of [3H]Rauwolscine from human Alpha2C receptor expressed in MDCK cells measured after 90 mins by microbeta scintillation counting method; format: cell-based
Sequence of Alpha-2C adrenergic receptor (P18825 whole entry): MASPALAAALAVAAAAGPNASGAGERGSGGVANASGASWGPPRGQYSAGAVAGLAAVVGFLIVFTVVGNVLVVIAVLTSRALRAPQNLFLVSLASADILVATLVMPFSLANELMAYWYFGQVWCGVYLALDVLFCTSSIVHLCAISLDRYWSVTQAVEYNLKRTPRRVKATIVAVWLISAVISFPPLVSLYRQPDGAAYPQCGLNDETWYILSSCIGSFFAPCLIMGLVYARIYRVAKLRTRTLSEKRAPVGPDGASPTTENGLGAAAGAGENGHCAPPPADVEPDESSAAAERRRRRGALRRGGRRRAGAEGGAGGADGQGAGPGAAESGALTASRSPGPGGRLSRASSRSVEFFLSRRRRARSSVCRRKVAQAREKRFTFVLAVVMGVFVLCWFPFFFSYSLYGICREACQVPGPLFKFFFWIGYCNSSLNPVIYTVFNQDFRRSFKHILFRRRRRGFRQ

[7] = biological target: 5-hydroxytryptamine receptor 1E (Homo sapiens, UniProt P28566); assay: Displacement of [3H]5-HT from human 5-HT1E receptor expressed in HEK cells measured after 90 mins by microbeta scintillation counting method; format: cell-based, HEK293
Sequence of 5-hydroxytryptamine receptor 1E (P28566 whole entry): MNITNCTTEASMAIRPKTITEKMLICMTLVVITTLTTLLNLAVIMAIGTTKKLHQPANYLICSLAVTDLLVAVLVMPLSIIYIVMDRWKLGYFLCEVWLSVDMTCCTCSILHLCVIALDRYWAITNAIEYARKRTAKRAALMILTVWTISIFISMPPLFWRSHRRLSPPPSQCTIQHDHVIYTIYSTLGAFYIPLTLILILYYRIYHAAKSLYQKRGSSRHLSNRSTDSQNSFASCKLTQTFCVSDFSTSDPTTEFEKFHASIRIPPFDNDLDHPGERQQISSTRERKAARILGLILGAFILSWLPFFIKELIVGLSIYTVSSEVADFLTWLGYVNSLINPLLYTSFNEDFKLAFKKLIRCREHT

[8] = biological target: 5-hydroxytryptamine receptor 6 (Homo sapiens, UniProt P50406); assay: Displacement of [3H]LSD from human 5-HT6 receptor expressed in HEK cells measured after 90 mins by microbeta scintillation counting method; format: cell-based, HEK293
Sequence of 5-hydroxytryptamine receptor 6 (P50406 whole entry): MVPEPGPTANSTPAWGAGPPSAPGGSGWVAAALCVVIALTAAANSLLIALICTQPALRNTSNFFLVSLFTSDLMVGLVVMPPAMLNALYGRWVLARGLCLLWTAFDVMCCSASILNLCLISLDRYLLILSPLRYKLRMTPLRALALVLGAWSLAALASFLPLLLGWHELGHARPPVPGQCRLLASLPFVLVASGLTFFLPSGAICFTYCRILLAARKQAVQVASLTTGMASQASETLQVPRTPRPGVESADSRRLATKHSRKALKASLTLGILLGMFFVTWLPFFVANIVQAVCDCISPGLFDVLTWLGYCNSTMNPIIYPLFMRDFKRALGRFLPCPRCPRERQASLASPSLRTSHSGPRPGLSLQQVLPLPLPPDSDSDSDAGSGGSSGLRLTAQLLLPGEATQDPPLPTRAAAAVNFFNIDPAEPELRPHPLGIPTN

PC-12 = settings: Rattus norvegicus, 10 uM
[9] = biological target: Sodium-dependent dopamine transporter (Homo sapiens, UniProt Q01959); assay: Displacement of [3H]WIN35428 from human DAT expressed in HEK cells measured after 90 mins by microbeta scintillation counting method; format: cell-based, HEK293
Sequence of Sodium-dependent dopamine transporter (Q01959 whole entry): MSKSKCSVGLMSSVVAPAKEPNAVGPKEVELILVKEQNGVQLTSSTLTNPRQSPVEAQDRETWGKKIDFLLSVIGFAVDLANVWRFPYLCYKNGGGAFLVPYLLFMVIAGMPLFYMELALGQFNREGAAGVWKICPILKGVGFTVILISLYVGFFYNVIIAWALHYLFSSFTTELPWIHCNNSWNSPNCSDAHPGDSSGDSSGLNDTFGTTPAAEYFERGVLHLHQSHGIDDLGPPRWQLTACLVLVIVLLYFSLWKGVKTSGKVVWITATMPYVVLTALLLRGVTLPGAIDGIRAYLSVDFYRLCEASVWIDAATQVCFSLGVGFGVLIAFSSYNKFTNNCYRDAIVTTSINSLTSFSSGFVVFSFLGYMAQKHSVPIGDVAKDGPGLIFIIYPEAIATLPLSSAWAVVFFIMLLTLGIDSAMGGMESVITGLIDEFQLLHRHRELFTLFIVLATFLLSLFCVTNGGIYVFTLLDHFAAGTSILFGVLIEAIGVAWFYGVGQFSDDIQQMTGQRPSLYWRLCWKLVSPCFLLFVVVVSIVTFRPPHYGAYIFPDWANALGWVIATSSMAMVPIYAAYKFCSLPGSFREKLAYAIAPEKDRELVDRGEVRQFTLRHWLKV

[10] = biological target: Alpha-1D adrenergic receptor (Homo sapiens, UniProt P25100); assay: Displacement of [3H]Prazosin from human Alpha1D receptor measured after 90 mins by microbeta scintillation counting method
[11] = biological target: 5-hydroxytryptamine receptor 1D (Homo sapiens, UniProt P28221); assay: Displacement of [3H]5-CT from human 5-HT1D receptor expressed in HEK-T cells measured after 90 mins by microbeta scintillation counting method; format: cell-based
Sequence of 5-hydroxytryptamine receptor 1D (P28221 whole entry): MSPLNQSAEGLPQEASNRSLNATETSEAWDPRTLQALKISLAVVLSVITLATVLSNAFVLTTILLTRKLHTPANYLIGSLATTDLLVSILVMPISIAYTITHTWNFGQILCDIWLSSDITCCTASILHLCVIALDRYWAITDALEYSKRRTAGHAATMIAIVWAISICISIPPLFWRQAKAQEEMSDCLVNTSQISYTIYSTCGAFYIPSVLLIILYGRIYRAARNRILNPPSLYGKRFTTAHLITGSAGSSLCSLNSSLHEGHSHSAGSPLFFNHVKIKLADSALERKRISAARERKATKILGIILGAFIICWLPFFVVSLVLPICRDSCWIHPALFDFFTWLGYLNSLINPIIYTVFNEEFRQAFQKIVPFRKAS

[12] = biological target: Muscarinic acetylcholine receptor M3 (Homo sapiens, UniProt P20309); assay: Binding affinity to human M3 receptor expressed in CHO cells measured after 90 mins by radioligand binding assay; format: cell-based
Mu-type opioid receptor = Mu-type opioid receptor (Homo sapiens, UniProt P35372); assay: Displacement of [3H]DAMGO from human MOR expressed in HEK cells after 90 mins by microbeta scintillation counting method; format: cell-based, HEK293
Sequence of Mu-type opioid receptor (P35372 whole entry): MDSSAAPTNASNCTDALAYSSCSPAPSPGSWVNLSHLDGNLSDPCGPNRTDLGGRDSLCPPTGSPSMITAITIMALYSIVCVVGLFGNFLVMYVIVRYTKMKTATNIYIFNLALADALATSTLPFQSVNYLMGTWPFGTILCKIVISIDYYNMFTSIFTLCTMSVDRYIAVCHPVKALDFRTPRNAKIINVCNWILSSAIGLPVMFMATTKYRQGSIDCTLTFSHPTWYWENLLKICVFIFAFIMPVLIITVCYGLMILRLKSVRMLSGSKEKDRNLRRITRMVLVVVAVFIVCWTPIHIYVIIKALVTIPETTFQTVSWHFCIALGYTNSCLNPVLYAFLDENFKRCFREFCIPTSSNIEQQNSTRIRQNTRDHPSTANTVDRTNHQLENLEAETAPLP

[13] = biological target: Alpha-2B adrenergic receptor (Homo sapiens, UniProt P18089); assay: Displacement of [3H]Rauwolscine from human Alpha2B receptor expressed in HEK-T cells measured after 90 mins by microbeta scintillation counting method; format: cell-based
D(1A) dopamine receptor = D(1A) dopamine receptor (Homo sapiens, UniProt P21728); assay: Displacement of [3H]SCH23390 from human D1 receptor expressed in HEK-T cells measured after 90 mins by microbeta scintillation counting method; format: cell-based
[14] = biological target: Alpha-1B adrenergic receptor (Homo sapiens, UniProt P35368); assay: Displacement of [3H]Prazosin from human Alpha1B receptor expressed in HEK-T cells measured after 90 mins by microbeta scintillation counting method; format: cell-based
D(1B) dopamine receptor = D(1B) dopamine receptor (Homo sapiens, UniProt P21918); assay: Displacement of [3H]SCH23390 from human D5 receptor expressed in HEK-T cells measured after 90 mins by microbeta scintillation counting method; format: cell-based
Sequence of D(1B) dopamine receptor (P21918 whole entry): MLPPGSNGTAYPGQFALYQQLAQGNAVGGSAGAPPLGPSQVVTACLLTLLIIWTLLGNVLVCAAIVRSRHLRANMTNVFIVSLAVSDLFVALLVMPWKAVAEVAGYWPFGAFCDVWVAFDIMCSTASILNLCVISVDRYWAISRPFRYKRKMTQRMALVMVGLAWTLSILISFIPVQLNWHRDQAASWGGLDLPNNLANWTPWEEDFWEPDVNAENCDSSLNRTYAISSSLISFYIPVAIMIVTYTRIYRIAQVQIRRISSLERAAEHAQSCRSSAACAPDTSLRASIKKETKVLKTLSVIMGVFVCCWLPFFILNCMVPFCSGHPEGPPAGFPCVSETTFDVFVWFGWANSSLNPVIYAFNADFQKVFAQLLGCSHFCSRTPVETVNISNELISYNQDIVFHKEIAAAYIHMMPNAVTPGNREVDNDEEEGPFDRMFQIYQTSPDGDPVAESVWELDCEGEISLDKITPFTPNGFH

[15] = biological target: 5-hydroxytryptamine receptor 7 (Homo sapiens, UniProt P34969); assay: Displacement of [3H]LSD from human 5-HT7 receptor expressed in HEK cells measured after 90 mins by microbeta scintillation counting method; format: cell-based, HEK293
Sequence of 5-hydroxytryptamine receptor 7 (P34969 whole entry): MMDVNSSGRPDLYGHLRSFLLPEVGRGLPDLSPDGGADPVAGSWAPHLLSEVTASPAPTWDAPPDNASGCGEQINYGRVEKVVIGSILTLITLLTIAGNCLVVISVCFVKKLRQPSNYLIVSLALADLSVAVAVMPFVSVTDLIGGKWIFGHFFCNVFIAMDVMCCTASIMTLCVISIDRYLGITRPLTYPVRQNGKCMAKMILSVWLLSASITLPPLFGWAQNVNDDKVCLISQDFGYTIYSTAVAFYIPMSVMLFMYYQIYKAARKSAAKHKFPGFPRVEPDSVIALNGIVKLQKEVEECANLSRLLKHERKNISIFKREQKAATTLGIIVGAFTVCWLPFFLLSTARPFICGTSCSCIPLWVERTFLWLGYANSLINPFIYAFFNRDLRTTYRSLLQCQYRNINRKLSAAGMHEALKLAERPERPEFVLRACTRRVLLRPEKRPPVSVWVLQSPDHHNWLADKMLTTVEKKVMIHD

Histamine H2 receptor = Histamine H2 receptor (Homo sapiens, UniProt P25021); assay: Binding affinity to H2 receptor (unknown origin) expressed in HEKT cells measured after 90 mins by radioligand binding assay; format: cell-based
[16] = biological target: 5-hydroxytryptamine receptor 2B (Homo sapiens, UniProt P41595); assay: Displacement of [3H]LSD from human 5-HT2B receptor expressed in HEK cells measured after 90 mins by microbeta scintillation counting method; format: cell-based, HEK293
[17] = biological target: Kappa-type opioid receptor (Homo sapiens, UniProt P41145); assay: Displacement of [3H]U69593 from KOR (unknown origin) expressed in HEKT cells measured after 90 mins by microbeta scintillation counting method; format: cell-based
Sequence of Kappa-type opioid receptor (P41145 whole entry): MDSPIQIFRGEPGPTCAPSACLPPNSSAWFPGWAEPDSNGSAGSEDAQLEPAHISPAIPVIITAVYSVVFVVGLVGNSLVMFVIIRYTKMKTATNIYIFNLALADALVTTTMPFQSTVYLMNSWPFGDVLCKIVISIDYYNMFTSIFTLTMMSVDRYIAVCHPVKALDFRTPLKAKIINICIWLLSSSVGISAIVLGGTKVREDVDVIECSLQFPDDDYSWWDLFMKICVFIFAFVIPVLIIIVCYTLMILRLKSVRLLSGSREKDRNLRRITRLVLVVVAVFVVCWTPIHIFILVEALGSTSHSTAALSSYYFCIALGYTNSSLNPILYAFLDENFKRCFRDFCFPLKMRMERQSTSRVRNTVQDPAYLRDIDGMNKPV

[18] = biological target: T1, 5-hydroxytryptamine receptor 1A (Homo sapiens, UniProt P08908); assay: Displacement of [3H]Way100635 from human 5-HT1A receptor expressed in CHO cells measured after 90 mins by microbeta scintillation counting method; format: cell-based
T1 sequence (P08908 whole entry): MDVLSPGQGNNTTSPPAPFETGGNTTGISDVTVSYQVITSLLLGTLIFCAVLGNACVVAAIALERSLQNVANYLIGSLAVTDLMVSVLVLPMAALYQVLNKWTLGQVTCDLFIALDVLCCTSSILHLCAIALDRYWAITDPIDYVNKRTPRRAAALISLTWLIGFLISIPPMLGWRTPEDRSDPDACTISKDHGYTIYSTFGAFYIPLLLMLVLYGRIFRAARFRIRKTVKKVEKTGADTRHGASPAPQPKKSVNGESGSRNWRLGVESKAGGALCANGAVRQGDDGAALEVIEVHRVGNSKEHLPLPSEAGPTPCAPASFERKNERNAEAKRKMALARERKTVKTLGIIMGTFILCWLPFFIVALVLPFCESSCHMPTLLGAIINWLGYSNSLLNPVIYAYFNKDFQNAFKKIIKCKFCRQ

[19] = biological target: 5-hydroxytryptamine receptor 5A (Homo sapiens, UniProt P47898); assay: Displacement of [3H]LSD from human 5-HT5A receptor expressed in Flp-In CHO cells measured after 90 mins by microbeta scintillation counting method; format: cell-based
Sequence of 5-hydroxytryptamine receptor 5A (P47898 whole entry): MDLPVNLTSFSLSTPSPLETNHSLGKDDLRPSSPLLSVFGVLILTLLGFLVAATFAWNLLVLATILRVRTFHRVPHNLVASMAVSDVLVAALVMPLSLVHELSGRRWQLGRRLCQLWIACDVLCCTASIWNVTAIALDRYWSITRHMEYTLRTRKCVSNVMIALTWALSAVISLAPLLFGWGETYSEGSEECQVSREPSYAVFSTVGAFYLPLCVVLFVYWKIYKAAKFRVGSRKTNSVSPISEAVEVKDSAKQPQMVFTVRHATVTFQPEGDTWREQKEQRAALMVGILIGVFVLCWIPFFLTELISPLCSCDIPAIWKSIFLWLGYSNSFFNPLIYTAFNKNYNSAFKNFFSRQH

[20] = biological target: Sigma non-opioid intracellular receptor 1 (Cavia porcellus) (UniProt Q60492); settings: 10 uM
Histamine H4 receptor = Histamine H4 receptor (Homo sapiens, UniProt Q9H3N8); assay: Displacement of [3H]Histamine from H4 receptor (unknown origin) measured after 90 mins by microbeta scintillation counting method
D(3) dopamine receptor = D(3) dopamine receptor (Homo sapiens, UniProt P35462); assay: Displacement of [3H]N-methylspiperone from D3 receptor (unknown origin) expressed in HEK-T cells measured after 90 mins by microbeta scintillation counting method; format: cell-based
[21] = biological target: Muscarinic acetylcholine receptor M2 (Homo sapiens, UniProt P08172); assay: Binding affinity to human M2 receptor expressed in CHO cells measured after 90 mins by radioligand binding assay; format: cell-based

Structure (SMILES) | Ki [1] [µM] | Ki [2] [µM] | Ki [3] [µM] | Ki [4] [µM] | Ki (Histamine H1 receptor) [µM] | Ki (D(2) dopamine receptor) [µM] | Ki [5] [µM] | Ki [6] [µM] | Ki [7] [µM] | Ki [8] [µM] | inhibition (PC-12) [%] | Ki [9] [µM] | Ki [10] [µM] | Ki [11] [µM] | Ki [12] [µM] | Ki (Mu-type opioid receptor) [µM] | Ki [13] [µM] | Ki (D(1A) dopamine receptor) [µM] | Ki [14] [µM] | Ki (D(1B) dopamine receptor) [µM] | other results
CN1CC[C@H]2CC(=O)[C@H](Cc3ccccc3)[C@H]3CCC[C@@H]1[C@H]23 | > 10 | > 10 | > 10 | > 10 | > 10 | > 10 | > 10 | > 10 | > 10 | > 10 | > 50 | 2.18 | > 10 | > 10 | 0.661 | > 10 | > 10 | > 10 | > 10 | > 10 | Ki [15]: > 10 µM; Ki (Histamine H2 receptor): > 10 µM; Ki [16]: 1.91 µM; Ki [17]: > 10 µM; Ki [18]: > 10 µM; Ki [19]: > 10 µM; inhibition [20]: > 50%; Ki (Histamine H4 receptor): > 10 µM; Ki (D(3) dopamine receptor): > 10 µM; Ki [21]: > 10 µM
CCCN1CC[C@H]2c3cc4ccc(C(F)(F)F)cc4nc3[C@H](CC)[C@H]3CCC[C@@H]1[C@@H]32 | > 10 | > 10 | > 10 | 1.59 | > 10 | > 10 | > 10 | 1.04 | > 10 | > 10 | > 50 | > 10 | > 10 | > 10 | > 10 | 2.36 | 1.04 | > 10 | > 10 | > 10 | Ki [15]: > 10 µM; Ki (Histamine H2 receptor): > 10 µM; Ki [16]: > 10 µM; Ki [17]: 0.416 µM; Ki [18]: > 10 µM; Ki [19]: > 10 µM; inhibition [20]: > 50%; Ki (Histamine H4 receptor): > 10 µM; Ki (D(3) dopamine receptor): > 10 µM; Ki [21]: > 10 µM
